The values that follow are results of earlier work, collected in US11396520B2, “Synthesis of the organoarsenical antibiotic arsinothricin and derivatives thereof” (THE FLORIDA INTERNATIONAL UNIVERSITY BOARD OF TRUSTEES, priority 2020, dated 2022).

Series [1] concerns Gram-positive and Gram-negative bacteria. To be noted: stated in words, no test described.
For series [2], the system named is glutamine synthetase. Particulars: stated in words, no test described.
For series [3], the system named is carbapenem-resistant Enterobacter cloacae (CRE). To be noted: WHO ESKAPE pathogen CRE; stated in words, no test described.
Series [4] concerns Mycobacterium bovis BCG. To be noted: M. bovis BCG; stated in words, no test described.

In the case of `NC(CC[AsH](=O)CO)C(=O)O` (stereo not shown) [AST, 2-amino-4-(hydroxymethylarsinoyl)-butanoic acid], the antibiotic activity result is “effective against both Gram-positive and Gram-negative bacteria” in series [1]; “effective against” in series [3]; “effective against” in series [4]. Moreover, the “inhibition of glutamine synthetase” value in series [2] is reported as “inhibits glutamine synthetase”.
